Results reported in patent US20200316159A1, “SUSTAINED RELEASE COMPOSITIONS OF KAPPA-OPIOID RECEPTOR AGONIST” (JT PHARMACEUTICALS, INC., priority 2016, published 2020).
“Also recorded” adds a separate entry of the source.

How the values were obtained:
[1] = target: kappa opioid receptor (Homo sapiens, UniProt P41145); assay: Opioid receptor activation assay, DiscoveRx PathHunter Beta-Arrestin, kappa; type: cell-based
From the text: Opioid Receptor Activation Assay.
PathHunter™ Beta-Arrestin GPCR Functional Profiling and Screening cell lines that express the individual opioid receptors were obtained from DiscoveRx (Fremont, Calif.). These cells express the kappa (or mu or delta) opioid receptor fused to a proprietary β-galactosidase enzyme fragment and the […]-arrestin gene fused to an enzyme acceptor (the remaining fragment of β-galactosidase). Upon activation of the receptor, β-arrestin is recruited to the GPCR and the β-galactosidase is activated through enzyme complementation. Cells were grown using standard cell culture techniques and then plated at 30,000 cells/well in 90 μl in a 96 well white, clear bottom plate and incubated overnight. Dilutions were prepared in dilution buffer (HBBS, 20 mMHepes, 0.1% BSA) and 10 μl added per well. Plates were then incubated for 90 min at 37° C. in a water-saturated atmosphere. Plates were then allowed to come to room temp and DiscoveRx's proprietary developing agent added as recommended by the manufacturer. This agent contains a detergent, 6-O-β-galactopyranosyl-luciferen and luciferase. Plates were then incubated for 1 hr at room temperature before being read on a luminometer. Antagonist studies were performed in an identical manner except after the overnight incubation 10 μl media was removed and replaced with drug or naloxone at the indicated concentration. […] To calculate % maximal luminescence, background was subtracted from the experimental values and this was divided by maximal luminescence and multiplied by 100.
To confirm this, and to determine their relative activities, we assessed their efficiency using PathHunter™ Beta-Arrestin GPCR Functional Profiling and Screening cell lines from DiscoveRx (Fremont, Calif.) as described in the Materials and Methods section.

[2] = tested on: dysphoria (time spent immobile); assay: Forced swim assay; type: in vivo, rat
Protocol: The most common reason for discontinuing development of kappa agonists is the induction of dysphoria, which is mediated through CNS kappa receptors. To test for this side effect, we used an established model: the repeated forced swim assay. Rats were placed in a container with 30° C. water without an escape avenue. Time spent immobile during the last 4 min of each trial was recorded. Immobility was defined by a posture in which the forelimbs were motionless in front of the body, hind legs display limited motion, and the tail is directed outward. On day one, rats were placed in the water for 15 min. On the following day, placements consisted of four trials lasting 6 min each, separated by 10 mins. Salvorin A (1 mg/kg, i.p.) or JT09 (20 mg/kg, p.o.) were administered immediately before the first placement. Time spent immobile is a diagnostic of dysphoria and typically increases with each trial. Salvinorin A (a centrally available kappa agonist) was used as a positive control due to its known […] effects such as dysphoria.

Chain of kappa opioid receptor (P41145 whole entry): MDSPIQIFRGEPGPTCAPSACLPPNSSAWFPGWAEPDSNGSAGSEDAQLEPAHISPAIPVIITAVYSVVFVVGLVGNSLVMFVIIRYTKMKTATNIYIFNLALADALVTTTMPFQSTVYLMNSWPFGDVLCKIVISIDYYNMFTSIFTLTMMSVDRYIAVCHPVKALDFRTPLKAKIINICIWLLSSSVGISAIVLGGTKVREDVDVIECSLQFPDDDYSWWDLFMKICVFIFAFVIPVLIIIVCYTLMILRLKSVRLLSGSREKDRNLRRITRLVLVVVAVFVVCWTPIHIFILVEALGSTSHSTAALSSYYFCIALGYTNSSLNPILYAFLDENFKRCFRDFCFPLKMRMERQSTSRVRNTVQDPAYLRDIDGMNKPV

## CCCC[C@@H](NC(=O)[C@@H](Cc1ccccc1)NC(=O)[C@H](N)Cc1ccccc1)C(=O)N[C@H](CCCCN(C)C)C(=O)NCc1ccncc1 [Compound 9]
[1]; PathHunter Beta-Arrestin
  EC50, activation of kappa opioid receptor: low nM range
[1]; PathHunter Beta-Arrestin, 3-6 repeats, read-out: 95% confidence levels of EC50, activation of kappa receptors
  EC50: 0.0153 to 0.0545 µM
[1]; minimal estimate
  agonist selectivity for kappa over both mu- and delta-opioid receptors: > 33,400
[2]; 20 mg/kg p.o., listed as JT09
  immobility time in forced swim versus saline: statistically indistinguishable; also recorded: did not induce more than a baseline time of immobility
[2]; JT09 20 mg/kg p.o. versus salvinorin A 1 mg/kg i.p., all trials
  immobility time in forced swim relative to salvinorin A: lower amounts of time spent immobile
